How the values were obtained:
[1] = tested on: Ehrlich ascites carcinoma; assay: Preventive effect against the growth of Ehrlich ascites carcinoma (Method A); format: in vivo, mice; conditions: for MTD: footnote *3 in image, dose column in mg/kg/day; for MED: footnote *4 in image, b22: minimum effective dose per day which causes 100 % inhibition, in mg/kg/day; for M.E.D.: minimum effective dose per day which causes 100 % inhibition of Ehrlich ascites carcinoma
Excerpt: It may be useful to prolong the survival time of warm-blood .animals, including human,.afflicted with tumors and/or minimize the growth of tumors in said animals. […] The compound of the present invention is also useful for the treatment of various other tumors such as prostate tumor, orchis tumor, ovary tumor, malignant lymphoma, leukemia, breast cancer and the like.

Leukemia L-1210 = assay: Effect on life span of mice implanted with Leukemia L-1210 (Method B); format: in vivo; conditions: for ILS30: denominator in brackets of the therapeutic index cell; for ILS30 / OD: dose column in mg/kg/day; for 60-day survivors: survivors/mice in group; for increase in the life span of mice: dose of 50 mg/kg/day; for OD: numerator in brackets of the therapeutic index cell
Procedure: […] test compound was begun 24 hours after the inoculation of the leukemic cells and performed once a day for 5 days. The survival days of the treated mice were observed.

[2] = dose 1.56 mg/kg/day, (C - T)/C x 100
[3] = dose 3.12 mg/kg/day, (C - T)/C x 100
[4] = dose 6.25 mg/kg/day, (C - T)/C x 100
[5] = dose 25 mg/kg/day, (C - T)/C x 100
[6] = dose 100 mg/kg/day, (C - T)/C x 100
[7] = dose 200 mg/kg/day, cell prints toxicity instead of inhibition (footnote *6 in image)

| Substance | Inhibition rate (%) [1, 2] | Inhibition rate (%) [1, 3] | Inhibition rate (%) [1, 4] | Inhibition rate (%) [1, 5] | ILS30 (Leukemia L-1210) | ILS (%) (Leukemia L-1210; dose 1.56 mg/kg/day) | 60-day survivors (Leukemia L-1210; dose 1.56 mg/kg/day) | ILS (%) (Leukemia L-1210; dose 3.12 mg/kg/day) | 60-day survivors (Leukemia L-1210; dose 3.12 mg/kg/day) | ILS (%) (Leukemia L-1210; dose 6.25 mg/kg/day) | 60-day survivors (Leukemia L-1210; dose 6.25 mg/kg/day) | ILS (%) (Leukemia L-1210; dose 12.5 mg/kg/day) | 60-day survivors (Leukemia L-1210; dose 12.5 mg/kg/day) | ILS (%) (Leukemia L-1210; dose 25 mg/kg/day) | 60-day survivors (Leukemia L-1210; dose 25 mg/kg/day) | ILS (%) (Leukemia L-1210; dose 50 mg/kg/day) | 60-day survivors (Leukemia L-1210; dose 50 mg/kg/day) | ILS (%) (Leukemia L-1210; dose 100 mg/kg/day) | 60-day survivors (Leukemia L-1210; dose 100 mg/kg/day) | OD (Leukemia L-1210) | also measured |
| --- | --- | --- | --- | --- | --- | --- | --- | --- | --- | --- | --- | --- | --- | --- | --- | --- | --- | --- | --- | --- | --- |
| cis-Malonato(2-aminomethylpyridine) platinum (II) [Compound 2] | 12.9% | 100% | 100% | 100% | 1.8 | 25.7% | 0/4 | 47.1% | 0/4 | 61.4% | 0/4 | 92.9% | 0/4 | 185.7% | 0/4 | >757.1% | 4/4 | >757.1% | 4/4 | 100 | Inhibition rate (%) [1, 6]: 100%; Inhibition rate (%) [1, 7]: Toxic(5/5)^*6; MTD [1]: 100; MED [1]: 3.12; M.E.D. [1]: 3.12 mg/kg/day; increase in the life span of mice (Leukemia L-1210): more than 745% |
| cis-Dioxamato(2-aminomethylpyridine) platinum (II) [Compound 3] | – | – | – | – | 1.65 | 28.6% | 0/4 | 47.1% | 0/4 | 85.7% | 0/4 | 90.0% | 0/4 | 100.0% | 0/4 | >607.1% | 3/4 | >757.1% | 4/4 | 100 | – |
| cis-Oxalato(2-aminomethylpyridine) platinum (II) [Compound 1] | 21.9% | 100% | 100% | 100% | 1.3 | 33.8% | 0/4 | 52.1% | 0/4 | 80.3% | 0/4 | >269.0% | 1/4 | >463.4% | 2/4 | >745.1% | 4/4 | >745.1% | 4/4 | 100 | Inhibition rate (%) [1, 6]: 100%; Inhibition rate (%) [1, 7]: Toxic(5/5)^*6; MTD [1]: 100; MED [1]: 3.12; M.E.D. [1]: 3.12 mg/kg/day; ILS (%) (Leukemia L-1210; dose 0.78 mg/kg/day): 19.7%; 60-day survivors (Leukemia L-1210; dose 0.78 mg/kg/day): 0/4; increase in the life span of mice (Leukemia L-1210): more than 745% |

Source: EP0115929A1, “Novel organic platinum complex and process for the preparation thereof” (priority 1983, dated 1984)
